Results as given in patent US20210283109A1, “HETEROCYCLIC DIAMIDINES” (Friedrich-Alexander-Universität Erlangen-Nürnberg, priority 2016, published 2021).

What was measured:
[1] = system: Dermal fibroblasts from patients with SSc; experiment: Formazan toxicity assay of fibroblasts; format: cell-based, human; details: dermal fibroblasts from SSc patients cultured with different concentrations of compound
Procedure: (§1) Dermal fibroblasts from patients with SSc were cultured in the presence of DB1976. […] Moreover, in the presence of DB1976 differentiation of fibroblasts into matrix-producing myofibroblasts is inhibited (FIG. 3C). Bleomycin induced skin fibrosis was induced by local injections of bleomycin in C57Bl/6 mice (10 weeks of age, mixed genders) for four weeks. Subcutaneous injections of 0.9% NaCl served as a control. DB1976 was administered into tail vein every second day in different concentrations (1 mg/kg body weight; 5 mg/kg body weight) after first application of bleomycin. […] Bleomycin-induced pulmonary fibrosis was induced by a single intratracheal application of bleomycin in C57Bl/6 mice (12 weeks of age, males) using a high pressure syringe (Penn-Century, Wyndmoor, Pa., USA). […]
(§2) (A) Formazan toxicity assay of fibroblasts incubated with different concentrations of DB1976 as indicated; (B) human diseased dermal fibroblasts untreated or stimulated with either TGF-β alone or TGF-β plus DB1976; collagen protein level and mRNA level of col1a1 relative to control. […] (C) Immune fluorescence microscopy of cultured fibroblasts as indicated; cells are stained with DAPI, alpha smooth muscle actin (αSMA) and stress fibers. Representative image of 5 independent experiments are shown. *p<0.05 determined by Student's t test according pretest for normality (D'Agostino-Pearson normality test).

PU.1 = details: cited from earlier work
[2] = system: Cancer associated fibroblasts (CAFs); experiment: Matrix production of cancer associated fibroblasts activated by TGF-β; format: cell-based, human; details: cultured with compound for 96 h, compared to CAFs without compound
Excerpt: Cancer associated fibroblasts (CAFs) are associated with cancer cells at all stages of cancer progression, and their structural and functional contributions to this process are well known. This implies that CAFs have a prominent role in the progression, growth and spread of cancers and represent an important target for cancer therapies.
FIG. 7: DB1976 inhibits collagen production of cancer associated fibroblasts (CAFs). (A) Quantification of PU.1-expressing fibroblasts in healthy colon tissue compared to tumor tissue (colorectal carcinoma). Cells are counted per high power field (HPF). (B) collagen production of CAFs assessed by western blot analysis; PU.1, collagen and β-actin expression in response to stimulation w/o TGF-β in the presence and absence of DB1976; representative blots of 6 independent experiments are shown. […] (C) Immune fluorescence microscopy of fibroblasts from healthy tissue (HC) and CAFs cultured w/o DB1976; DAPI and alpha smooth muscle actin (αSMA) are stained. Representative images of 5 independent experiments are shown. *p<0.05; **p<0.01 determined by Mann-Whitney U-test for non-parametric data.

[3] = system: human diseased dermal fibroblasts; experiment: Collagen release from fibroblasts after stimulation with TGF-β; format: cell-based; details: compared to TGF-β alone
Procedure: as §1
as §2, with “test). […]” for “test).”

apoptosis = experiment: Apoptosis by staining for cleaved caspase-3 or TUNEL assays
[4] = system: CCl4-induced hepatic fibrosis in mice; experiment: Carbon tetrachloride CCl4-induced hepatic fibrosis model; format: in vivo; details: CCl4 i.p. twice weekly
Procedure: (§3) Dermal fibroblasts from patients with SSc were cultured in the presence of DB1976. […] Moreover, in the presence of DB1976 differentiation of fibroblasts into matrix-producing myofibroblasts is inhibited (FIG. 3C). Bleomycin induced skin fibrosis was induced by local injections of bleomycin in C57Bl/6 mice (10 weeks of age, mixed genders) for four weeks. Subcutaneous injections of 0.9% NaCl served as a control. DB1976 was administered into tail vein every second day in different concentrations (1 mg/kg body weight; 5 mg/kg body weight) after first application of bleomycin. […] Bleomycin-induced pulmonary fibrosis was induced by a single intratracheal application of bleomycin in C57Bl/6 mice (12 weeks of age, males) using a high pressure syringe (Penn-Century, Wyndmoor, Pa., USA). Instillation of equal volumes of 0.9% NaCl served as a control. […] Carbon tetrachloride CCl4-induced hepatic fibrosis was induced by intraperitoneal (i.p.) injections of CCl4 in […] mice (14 weeks of age, mixed genders) (Palumbo-Zerr et al. Nature Medicine 21, 150-158 (2015)) twice weekly. […] DB1976 was also effective when initiated after fibrosis had already become manifest. In those experiments, mice were pre-challenged with bleomycin for 3 weeks to induce robust skin fibrosis. After 3 weeks, treatment with DB1976 was initiated, while injections with bleomycin were continued. […] Therapeutic application of DB1976 ameliorated skin thickness, collagen content and myofibroblast counts in the skin (FIG. 6A-F).
(§4) FIG. 5: Model of bleomycin induced lung and CCI-4 induced liver fibrosis. (A) Representative images of sirius red staining of lung tissue from control mice (Wild-type (WT) treated with sodium chloride; n=4), bleomycin treated mice (n≥7) and mice treated with bleomycin and DB1976 (n=≥5); (B) quantification of the fibrotic area; (C, D) mRNA expression level of col1a1 and col1a2; (E) hydroxyproline content.

[5] = system: Bleomycin-induced pulmonary fibrosis in C57Bl/6 mice; experiment: Bleomycin-induced pulmonary fibrosis model; format: in vivo; details: lung; compared to mice that received bleomycin without compound
Procedure: as §3, §4

[6] = system: Bleomycin induced skin fibrosis in C57Bl/6 mice; experiment: Bleomycin induced skin fibrosis model; format: in vivo; details: tail vein every second day, 1 and 5 mg/kg body weight, bleomycin four weeks; concentration dependent
Procedure: as §3
FIG. 4: Model of bleomycin induced skin fibrosis. (A) Representative images of trichrome staining of skin tissue from control mice (Wild-type (WT) treated with sodium chloride; n≥7), bleomycin treated mice (n=10) and mice treated with bleomycin and different concentrations of DB1976 (n≥8 each); (B;C) mRNA collagen1a1 or collagen1a2 expression; (D) dermal thickness; (E) quantification of α-smooth muscle actin-positive myofibroblasts; (F) hydroxyproline content.

[7] = system: Dermal fibroblasts from patients with SSc; experiment: Differentiation of fibroblasts into matrix-producing myofibroblasts (αSMA, stress fibers, immune fluorescence microscopy); format: cell-based, human; details: in the presence of compound
Procedure: as §1, §2

[8] = system: pre-established bleomycin induced skin fibrosis in mice; experiment: Regression of pre-established bleomycin induced skin fibrosis; format: in vivo; details: 6 weeks of bleomycin, treatment for the last 3 weeks
Procedure: as §3
FIG. 6: Regression of pre-established bleomycin induced skin fibrosis by treatment with DB1976. Mice were pre-challenged with bleomycin for 3 weeks to induce robust skin fibrosis. After 3 weeks, treatment with DB1976 was initiated, while injections with bleomycin were continued. After a total of 6 weeks of bleomycin and 3 weeks of treatment with DB1976, the extent of fibrosis was assessed. (A) Representative images of trichrome staining of skin tissue from control mice (Wild-type (WT) treated with sodium chloride; n≥4), 3 weeks bleomycin and afterwards 3 weeks sodium chloride treated mice (n≥8), bleomycin treated mice (n≥8) and mice treated with bleomycin and different concentrations of DB1976 (n≥3 each); (B;C) mRNA expression level of col1a1 and col1a2; (D) dermal thickness; (E) quantification of α-smooth muscle actin-positive myofibroblasts; (F) hydroxyproline content.

mice = experiment: Tolerability of treatment in mice; format: in vivo
Procedure: Dermal fibroblasts from patients with SSc were cultured in the presence of DB1976. […] Moreover, in the presence of DB1976 differentiation of fibroblasts into matrix-producing myofibroblasts is inhibited (FIG. 3C). Bleomycin induced skin fibrosis was induced by local injections of bleomycin in C57Bl/6 mice (10 weeks of age, mixed genders) for four weeks. Subcutaneous injections of 0.9% NaCl served as a control. DB1976 was administered into tail vein every second day in different concentrations (1 mg/kg body weight; 5 mg/kg body weight) after first application of bleomycin. […] Bleomycin-induced pulmonary fibrosis was induced by a single intratracheal application of bleomycin in C57Bl/6 mice (12 weeks of age, males) using a high pressure syringe (Penn-Century, Wyndmoor, Pa., USA). Instillation of equal volumes of 0.9% NaCl served as a control. […] Carbon tetrachloride CCl4-induced hepatic fibrosis was induced by intraperitoneal (i.p.) injections of CCl4 in […] mice (14 weeks of age, mixed genders) (Palumbo-Zerr et al. Nature Medicine 21, 150-158 (2015)) twice weekly. […] DB1976 was also effective when initiated after fibrosis had already become manifest. In those experiments, mice were pre-challenged with bleomycin for 3 weeks to induce robust skin fibrosis. After 3 weeks, treatment with DB1976 was initiated, while injections with bleomycin were continued. […]

N=C(N)c1ccc2nc(-c3ccc(-c4nc5ccc(C(=N)N)cc5[nH]4)[se]3)[nH]c2c1 [DB1976]
toxic effects in formazan toxicity assays [1]: did not observe toxic effects | inhibition of PU.1-binding to the DNA of PU.1 target genes (PU.1): potent inhibitor | alpha smooth muscle actin (αSMA) [2]: significant reduction | collagen production [2]: significant reduction | stress fiber expression [2]: significant reduction | collagen release from fibroblasts [3]: strong reduction | apoptosis by TUNEL assays (apoptosis): did not detect any evidence of apoptosis | apoptosis in staining for cleaved caspase-3 (apoptosis): did not detect any evidence of apoptosis | fibrotic tissue remodeling of the liver [4]: significant less | collagen production ([4]; liver): less | myofibroblast differentiation ([4]; liver): less | Ashcroft score [5]: reduced | collagen expression (hydroxyproline content) [5]: decreased | collagen expression (mRNA) [5]: decreased | myofibroblast count [5]: decreased | volume of fibrotic area [5]: decreased | collagen release assessed by col1a2 mRNA expression [6]: significantly decreased | collagen release assessed by hydroxyproline content of the skin [6]: significantly decreased | myofibroblast differentiation [6]: significantly decreased | skin thickening [6]: significantly decreased | differentiation of fibroblasts into matrix-producing myofibroblasts [7]: inhibited | collagen content in the skin [8]: ameliorated | myofibroblast counts in the skin [8]: ameliorated | skin thickness [8]: ameliorated | extent of fibrosis ([8]; compared to controls): significantly reduced | clinical evidence of toxicity (mice): no clinical evidence of toxicity | tolerability of treatment (mice): well-tolerated
